Laboratory results taken from patent US6277861A, “Anti-convulsant isoquinolyl-benzamide derivatives” (SmithKline Beecham, p.l.c., priority 1997, dated 2001).
Counter-ions that a name gives are not always drawn.

Assays:
[1] = molecular target: novel receptor obtainable from rat forebrain tissue ([3H]-Compound A binding site); experiment: Radioligand binding assay, displacement of [3H]-Compound A from rat forebrain tissue; settings: competition with [3H]-Compound A, Table
Procedure: WO 92/22293 (SmithKline Beecham) discloses compounds having anti-convulsantactivity, including inter alia the compound trans-(+)-6-acetyl-4S-(4-fluorobenzoylamino)-3,4-dihydro-2,2-dimethyl-2H-1-benzopyran-3R-ol (hereinafter referred to as Compound A). […] The affinity of test compounds to the novel receptor site is assessed as follows. Whole forebrain tissue is obtained from rats. The tissue is first homogenised in buffer (usually 50 mM Tris/HCl, pH 7.4). The homogenised tissue is washed by centrifugation and resuspension in the same buffer, then stored at -70° C. until used. To carry out the radioligand binding assay, aliquots of tissue prepared as above (usually at a concentration of 1-2 mg protein/ml) are mixed with aliquots of [3H]-Compound A dissolved in buffer. The final concentration of [3H]-Compound A in the mixture is usually 20 nM. The mixture is incubated at room temperature for 1 hour. [3H]-Compound A bound to the tissue is then separated from unbound [3H]-Compound A by filtration through Whatman GF/B glass fibre filters. The filters are then washed rapidly with ice-cold buffer. The amount of radioactivity bound to the tissue trapped on the filters is measured by addition of liquid scintillation cocktail to the filters followed by counting in a liquid scintillation counter. In order to determine the amount of "specific" binding of [3H]-Compound A, parallel assays are carried out as above in which [3H]-Compound A and tissue are incubated together in the presence of unlabelled Compound A (usually 3 μM). The amount of binding of [3H]-Compound A remaining in the presence of this unlabelled compound is defined as "non-specific" binding. This amount is subtracted from the total amount of [3H]-Compound A binding (i.e. that present in the absence of unlabelled compound) to obtain the amount of "specific" binding of [3H]-Compound A to the novel site. The affinity of the binding of test compounds to the novel site can be estimated by incubating together [3H]-Compound A and tissue in the presence of a range of concentrations of the compound to be tested. The decrease in the level of specific [3H]-Compound A binding as a result of competition by increasing concentrations of the compound under test is plotted graphically, and non-linear regression analysis of the resultant curve is used to provide an estimate of compound affinity in terms of pKi value.

[2] = tested on: maximal electroshock seizure threshold; experiment: Maximal electroshock seizure (MEST) threshold test, rat model; assay type: in vivo, rats; settings: percentage increase in CC50 compared to the control, suspended in 1% methyl cellulose
Procedure: The maximal electroshock seizure (MEST) threshold test in rodents is particularly sensitive for detecting potential anticonvulsant properties^1. In this model, anticonvulsant agents elevate the threshold to electrically-induced seizures whilst proconvulsants lower the seizure threshold. The threshold for maximal (tonic hindlimb extension) electroshock seizures in male rats (Sprague Dawley, 80-150 g, 6 weeks old) was determined by a Hugo Sachs Electronik stimulator which delivered a constant current (0.3 sec duration; from 1-300 mA in steps of 5-20 mA). The procedure is similar to that outlined above for mouse and full details are as published by Upton et al,.^4 The percentage increase or decrease in CC50 for each group compared to the control is calculated. Drugs are suspended in 1% methyl cellulose.

[3] = tested on: maximal electroshock seizure threshold; experiment: Maximal electroshock seizure (MEST) threshold test, mouse model; assay type: in vivo, mice; settings: 10 mg/kg p.o. at 2 h
Procedure: The maximal electroshock seizure (MEST) threshold test in rodents is particularly sensitive for detecting potential anticonvulsant properties^1. In this model, anticonvulsant agents elevate the threshold to electrically-induced seizures whilst proconvulsants lower the seizure threshold.
Mice (naive male, Charles River, U.K. CD-1 strain, 25-30 g) are randomly assigned to groups of 10-20 and dosed orally or intraperitoneally at a dose volume of 10 ml/kg with various doses of compound (0.3-300 mg/kg) or vehicle. […] The mean current and standard error required to induce a tonic seizure in 50% (CC50) of the mice in a particular treatment group is determined by the `up and down` method of Dixon and Mood (1948)^2. Statistical comparisons between vehicle- and drug-treated groups are made using the method of Litchfield and Wilcoxon (1949)^3.
In control animals the CC50 is usually 14-18 mA. […] If a tonic convulsion does occur, then the current is decreased, and so on until all the animals in the group have been tested.
Studies are carried out using a Hugo Sachs Electronik Constant Current Shock Generator with totally variable control of shock level from 0 to 300 mA and steps of 2 mA are usually used.

Row | SMILES | pKI Compound A [1] | Rat MEST at 2 mg/kg p.o at 2h (increases) [2] | percentage increases in seizure threshold [3] [%]
1 | COc1ccc(C(=O)Nc2ccc3c(c2)CN(C)CC3(C)C)cc1C(F)(F)F.Cl [Example 7, N-(2,4,4-Trimethyl-4H-isoquinolin-7-yl)-4-methoxy-3-trifluoromethylbenzamide, hydrochloride] | 8.5 | 510 | –
2 | COc1cc(C(C)(C)C)ccc1C(=O)Nc1cccc2c1CCN(C)C2C (racemic) [Example 5, (±) N-(1,2-Dimethyl-1,2,3,4-tetrahydroisoquinolin-5-yl)-tert-butyl-2-methoxybenzamide, hydrochloride] | – | – | 46
3 | CC(C)c1ccc(C(=O)Nc2ccc3c(c2)CN(C)CC3(C)C)cc1C#N [Example 8, N-(2,4,4-Trimethyl-4H-isoquinolin-7-yl)-3-cyano-4-iso-propylbenzamide] | 8.0 | 120 | –
4 | CCc1ccc(C(=O)Nc2ccc3c(c2)CN(C)CC3(C)C)cc1Br [Example 9, N-(2,4,4,-Trimethyl-4H-isoquinolin-7-yl)-3-bromo-4-ethylbenzamide] | 8.3 | 53 | –
5 | COc1cc(C)c(C(F)(F)F)cc1C(=O)Nc1cccc2c1CCN(C)C2C (racemic) [Example 6, (±) N-(1,2-Dimethyl-1,2,3,4-tetrahydroisoquinolin-5-yl)-5-trifluoromethyl-2-methoxy-4-methyl benzamide, hydrochloride] | – | – | 36
6 | CC(C)Oc1ccc(C(=O)Nc2ccc3c(c2)CN(C)CC3(C)C)cc1Cl [Example 11, N-(2,4,4-Trimethyl-4H-isoquinolin-7-yl)-3-chloro--4-iso-propoxybenzamide] | 7.9 | 204 | –
7 | CCOc1ccc(C(=O)Nc2ccc3c(c2)CN(C)CC3(C)C)cc1Br [Example 10, N-(2,4,4-Trimethyl-4H-isoquinolin-7-yl)-3-bromo-4-ethoxybenzamide] | 8.2 | 294 | –
8 | COc1cc(OC(C)C)c(Cl)cc1C(=O)Nc1cccc2c1CCN(C)C2C (racemic) [Example 4, (±) N-(1,2-Dimethyl-1,2,3,4-tetrahydroisoquinolin-5-yl)-5-chloro-4-iso-propoxy-2-methoxybenzamide, hydrochloride] | – | – | 47
